The source of these data is EP4813993A1, “COMPOUND, PREPARATION METHOD THEREFOR, AND USE THEREOF” (Sichuan Kelun Pharmaceutical Research Institute Co., Ltd., priority 2023, dated 2025).

Data set [1] relates to formalin pain model. In words: Rat formalin pain model. It is filed as in vivo, SD rats. On the procedure:
Experimental Example 10: Pharmacodynamic effect study of compounds in rat formalin pain model
Experimental animals: SD rats, male, 180-200 g.
Compound preparation: 5% (final preparation volume) of DMSO was added to dissolve the test compound, and then 10% (final preparation volume) of Cremophor EL and 85% Saline were sequentially added; an appropriate amount of Etoricoxib was weighed, 5% (final preparation volume) of DMSO was added to dissolve the test compound, and then 5% (final preparation volume) of HS-15 and 90% Saline were sequentially added; the tramadol injection was diluted with normal saline to the desired concentration.
Each group consisted of 10 animals, and 50 µL of a 5% formalin solution was injected using a microsyringe into the right plantar region.
2. Administration and test
Based on different pharmacokinetic properties of the drugs, the administration was performed at 0 min, 60 min, and 120 min before modeling. After injection of the formalin, the number of pain responses in the rats was observed. […] Spontaneous pain responses were observed once every 5 min, and the number of pain responses in the rats within 1 min was counted, with a total observation duration of 60 min. Inhibition rate = (number of pain responses in control group - number of pain responses in administration group)/number of pain responses in control group × 100%.
Table 12. Administration information of compounds of the present disclosure in rat formalin model

Data set [2] deals with T1, Nav1.8 channels (Homo sapiens, UniProt Q9Y5Y9).
T1 construct: expressed in transfected cells
T1 sequence (Q9Y5Y9 whole entry): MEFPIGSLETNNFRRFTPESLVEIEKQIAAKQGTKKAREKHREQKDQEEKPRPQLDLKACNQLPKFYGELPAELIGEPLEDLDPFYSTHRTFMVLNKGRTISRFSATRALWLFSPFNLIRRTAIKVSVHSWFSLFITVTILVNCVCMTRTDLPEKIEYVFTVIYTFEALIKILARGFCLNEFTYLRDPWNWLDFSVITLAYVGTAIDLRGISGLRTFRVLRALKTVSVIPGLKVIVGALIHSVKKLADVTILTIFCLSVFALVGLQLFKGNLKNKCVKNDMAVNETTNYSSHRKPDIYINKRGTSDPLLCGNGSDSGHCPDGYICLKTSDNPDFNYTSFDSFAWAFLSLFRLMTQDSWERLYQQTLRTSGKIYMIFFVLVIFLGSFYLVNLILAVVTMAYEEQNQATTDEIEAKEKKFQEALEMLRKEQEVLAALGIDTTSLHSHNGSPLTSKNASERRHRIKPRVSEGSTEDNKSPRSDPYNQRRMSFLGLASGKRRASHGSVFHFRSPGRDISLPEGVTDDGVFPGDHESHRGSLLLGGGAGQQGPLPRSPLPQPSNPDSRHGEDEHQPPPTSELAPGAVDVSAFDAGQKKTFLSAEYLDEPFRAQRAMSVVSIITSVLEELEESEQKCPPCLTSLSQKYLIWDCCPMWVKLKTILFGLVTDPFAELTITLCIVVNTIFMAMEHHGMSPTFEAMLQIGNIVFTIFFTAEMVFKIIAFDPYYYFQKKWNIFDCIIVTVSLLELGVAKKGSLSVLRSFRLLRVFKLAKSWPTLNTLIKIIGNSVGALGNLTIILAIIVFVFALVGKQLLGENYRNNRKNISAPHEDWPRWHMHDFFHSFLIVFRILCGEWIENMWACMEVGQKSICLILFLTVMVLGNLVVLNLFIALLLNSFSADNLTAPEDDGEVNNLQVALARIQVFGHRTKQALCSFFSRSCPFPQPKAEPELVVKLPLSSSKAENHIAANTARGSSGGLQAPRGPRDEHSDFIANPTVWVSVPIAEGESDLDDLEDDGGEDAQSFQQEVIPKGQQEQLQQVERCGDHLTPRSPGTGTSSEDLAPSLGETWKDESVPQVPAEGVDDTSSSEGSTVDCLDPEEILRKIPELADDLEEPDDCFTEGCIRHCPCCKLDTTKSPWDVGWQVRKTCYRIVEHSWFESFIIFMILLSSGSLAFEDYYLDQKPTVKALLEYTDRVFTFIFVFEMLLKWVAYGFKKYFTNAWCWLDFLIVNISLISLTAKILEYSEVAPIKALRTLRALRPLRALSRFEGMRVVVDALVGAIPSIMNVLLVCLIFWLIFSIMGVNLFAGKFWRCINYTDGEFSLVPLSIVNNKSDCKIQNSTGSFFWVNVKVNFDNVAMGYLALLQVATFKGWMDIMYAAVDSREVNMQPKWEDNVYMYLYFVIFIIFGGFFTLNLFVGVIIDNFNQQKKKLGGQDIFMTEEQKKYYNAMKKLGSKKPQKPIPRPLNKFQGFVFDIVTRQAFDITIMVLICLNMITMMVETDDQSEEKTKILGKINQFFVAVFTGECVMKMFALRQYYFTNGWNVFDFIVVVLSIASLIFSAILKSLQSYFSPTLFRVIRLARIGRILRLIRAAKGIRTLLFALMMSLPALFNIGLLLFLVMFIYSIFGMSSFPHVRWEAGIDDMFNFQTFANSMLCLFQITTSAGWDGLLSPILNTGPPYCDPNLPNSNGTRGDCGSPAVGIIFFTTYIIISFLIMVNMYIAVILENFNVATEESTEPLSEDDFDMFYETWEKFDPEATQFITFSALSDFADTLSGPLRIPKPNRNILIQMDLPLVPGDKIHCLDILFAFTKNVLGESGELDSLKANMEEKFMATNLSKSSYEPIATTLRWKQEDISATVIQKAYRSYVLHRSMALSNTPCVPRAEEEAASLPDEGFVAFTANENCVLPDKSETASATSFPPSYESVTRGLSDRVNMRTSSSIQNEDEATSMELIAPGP
Put plainly: Manual patch-clamp, current of stably overexpressed Nav1.8 channels (resting state voltage program). It is filed as cell-based. As to conditions: for inhibition at 0.001 µM: concentration of 1 nM. Put shortly:
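Whole-cell manual patch clamp on cells stably overexpressing Nav1.8, held at -120 mV and stepped to 0 mV for 50 ms every 20 s (resting-state protocol). Compounds were perfused in ascending concentrations, each for 5 min or until stable; block of peak current was calculated at steady state.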

A short description of data set [3]: Pharmacokinetic study in ICR mice. It is filed as in vivo. As to conditions: male, mouse, plasma. On the procedure: Experimental Example 3: Pharmacokinetic study of compounds in ICR mice
Experimental animals: ICR mice, male, 6-8 weeks old.
Compound preparation: 5% (final preparation volume) of DMSO was added to dissolve the test compound, and then 10% (final preparation volume) of Cremophor EL and 85% Saline were sequentially added.
The injection group was given free access to food and water. The oral group was fasted overnight (> 12 h) with free access to water, and was fed 4 h after administration. Blood samples were collected from the jugular vein of ICR mice at the following time points: 5 min, 15 min, 0.5 h, 1 h, 2 h, 4 h, 8 h, and 24 h after injection administration; 15 min, 0.5 h, 1 h, 2 h, 4 h, 6 h, 8 h, and 24 h after oral administration. The collected blood samples were anticoagulated, placed in an ice bath, and then centrifuged for 5 min to separate plasma. The plasma was stored at -70 °C for analysis.
Sample test: The concentrations of the designated compound drugs in plasma were determined by the LC-MS/MS method; the main pharmacokinetic parameters were calculated using the Winnolin 8.3 non-compartmental model. Pharmacokinetic test results of some compounds of the present disclosure in ICR mice

Consider `COc1cccc(C2(O)CCCCC2CN(C)C)c1` (stereo not drawn) [Tramadol], for which the “Number of pain responses 0 min” value in data set [1] (SD rats, 10 mg/kg i.v. immediately before 5% formalin, 0 min, Mean + SD, n = 10) turned out to be 31.9±15.0. Also, the “Number of pain responses 10 min” value in data set [1] (SD rats, 10 mg/kg i.v. immediately before 5% formalin, 10 min, Mean + SD, n = 10) was determined as 1.9±3.0. For the same molecule, the “Number of pain responses 15 min” value in data set [1] (SD rats, 10 mg/kg i.v. immediately before 5% formalin, 15 min, Mean + SD, n = 10) was 4.1±4.4. In data set [1] (SD rats, 10 mg/kg i.v. immediately before 5% formalin, 30 min, Mean + SD, n = 10), the “Number of pain responses 30 min” value came to 12.8±6.7. In data set [1] (SD rats, 10 mg/kg i.v. immediately before 5% formalin, 40 min, Mean + SD, n = 10), the “Number of pain responses 40 min” value was found to be 13.2±8.1. Besides, the “Number of pain responses 50 min” value in data set [1] (SD rats, 10 mg/kg i.v. immediately before 5% formalin, 50 min, Mean + SD, n = 10) came out at 8.6±3.6. For the same molecule, the “Number of pain responses 60 min” value in data set [1] (SD rats, 10 mg/kg i.v. immediately before 5% formalin, 60 min, Mean + SD, n = 10) stood at 9.3±5.1. Further, in data set [1] (rat formalin pain model, first phase immediately after injection, second phase about 15-20 min after), the “analgesic activity in the first and second phases” value is “superior analgesic effects in the first and second phases, respectively”. Molecule `COc1c([C@@H]2C[C@](C)(C(F)(F)F)S[C@H]2C(=O)Nc2ccc(F)c(OS(N)(=O)=O)c2)ccc(F)c1F` [a-32-A] yielded an IC50 in data set [2] of 0.1 nM. The AUC(0-inf) in data set [3] (Oral administration, 10 mg/kg) came out at 22.9 µg·h/mL; in data set [3] (iv, Injection (i.v.), 2 mg/kg), 7.39 µg·h/mL. `COc1c([C@@H]2C[C@](C)(C(F)(F)F)S[C@H]2C(=O)Nc2cccc(C3N=N3)c2)ccc(F)c1F` [a-41-A, (2R,3S,5R)-N-(3-(3H-diazirin-3-yl)phenyl)-3-(3,4-difluoro-2-methoxyphenyl)-5-methyl-5-(trifluoromethyl)tetrahydrothiophene-2-carboxamide]: the inhibition at 0.01 µM in data set [2] (concentration of 10 nM, read-out: Inhibition rate %) was 80.6%.

For the molecule `COc1c([C@@H]2C[C@](C)(C(F)(F)F)S[C@H]2C(=O)Nc2cccc(-c3ncon3)c2)ccc(F)c1F` [a-42-A, (2R,3S,5R)-N-(3-(1,2,4-oxadiazol-3-yl)phenyl)-3-(3,4-difluoro-2-methoxyphenyl)-5-methyl-5-(trifluoromethyl)tetrahydrothiophene-2-carboxamide], the inhibition at 0.001 µM in data set [2] (read-out: Inhibition rate %) stood at 42%. On to `COc1c([C@@H]2C[C@](C)(C(F)(F)F)S[C@H]2C(=O)Nc2nn(S(=O)(=O)C(F)(F)F)cc2C)ccc(F)c1F` [a-43-A, (2R,3S,5R)-3-(3,4-difluoro-2-methoxyphenyl)-5-methyl-N-(4-methyl-1-((trifluoromethyl)sulfonyl)-1H-pyrazol-3-yl)-5-(trifluoromethane)tetrahydrothiophene-2-carboxamide], for which the inhibition at 0.001 µM in data set [2] (read-out: Inhibition rate %) stood at 40.1%. Turning to `CCS(=O)(=O)Nc1cccc(NC(=O)[C@@H]2S[C@@](C)(C(F)(F)F)C[C@H]2c2ccc(F)c(F)c2OC)c1` [a-44-A, (2R,3S,5R)-3-(3,4-difluoro-2-methoxyphenyl)-N-(3-(ethylsulfonamido)phenyl)-5-methyl-5-(trifluoromethyl)tetrahydrothiophene-2-carboxamide], the inhibition at 0.001 µM in data set [2] (read-out: Inhibition rate %) is 49.9%. As for `COc1c([C@@H]2C[C@](C)(C(F)(F)F)S[C@H]2C(=O)Nc2cccc(S(=O)(=O)NCCN)c2)ccc(F)c1F` [a-45-A, (2R,3S,5R)-N-(3-(N-(2-aminoethyl)sulfamoyl)phenyl)-3-(3,4-difluoro-2-methoxyphenyl)-5-methyl-5-(trifluoromethyl)tetrahydrothiophene-2-carboxamide], the IC50 in data set [2] stood at 0.024 nM. As to `COc1c([C@@H]2C[C@](C)(C(F)(F)F)S[C@H]2C(=O)N(O)c2ccnc(-c3ncon3)c2)ccc(F)c1F` [a-46-A, (2R,3S,5R)-N-(2-(1,2,4-oxadiazol-3-yl)pyridin-4-yl)-3-(3,4-difluoro-2-methoxyphenyl)-N-hydroxy-5-methyl-5-(trifluoromethyl)tetrahydrothiophene-2-carboxamide], the inhibition at 0.001 µM in data set [2] (read-out: Inhibition rate %) was 46.7%.

As for `COc1c([C@@H]2C[C@](C)(C(F)(F)F)S[C@H]2C(=O)Nc2ccnc(-c3ncon3)c2)ccc(F)c1F` [a-48-A, (2R,3S,5R)-3-(3,4-difluoro-2-methoxy-phenyl)-5-methyl-N-[2-(1,2,4-oxadiazol-3-yl)-4-pyridyl]-5-(trifluoromethyl)tetrahydrothiophene-2-carboxamide], the inhibition at 0.001 µM in data set [2] (read-out: Inhibition rate %) was 71.9%. Turning to `COc1c([C@@H]2C[C@](C)(C(F)(F)F)S[C@H]2C(=O)Nc2ccnc(SCN)c2)ccc(F)c1F` [a-51-A, (2R,3S,5R)-N-(2-aminomethylthio-4-pyridyl)-3-(3,4-difluoro-2-methoxy-phenyl)-5-methyl-5-(trifluoromethyl)tetrahydrothiophene-2-carboxamide], the inhibition at 0.001 µM in data set [2] (read-out: Inhibition rate %) was 88.5%. Same read-out and setting: the value for `COc1c([C@@H]2C[C@](C)(C(F)(F)F)S[C@H]2C(=O)Nc2cccc(NS(=O)(=O)CC(C)N)c2)ccc(F)c1F` (stereo partly drawn) [a-56-A, (2R,3S,5R)-N-(3-((2-aminopropyl)sulfonamido)phenyl)-3-(3,4-difluoro-2-methoxyphenyl)-5-methyl-5-(trifluoromethyl)tetrahydrothiophene-2-carboxamide] was 66.4%.

Regarding `COc1c([C@@H]2C[C@](C)(C(F)(F)F)S[C@H]2C(=O)Nc2ccnc(S(=O)(=O)N=[N+]=[N-])c2)ccc(F)c1F` [a-66-A, 4-((2R,3S,5R)-3-(3,4-difluoro-2-methoxyphenyl)-5-methyl-5-(trifluoromethyl)tetrahydrothiophene-2-carboxamido)pyridine-2-sulfonyl azide], in data set [2], the IC50 came to 0.26 nM.

As for `COc1c([C@@H]2C[C@](C)(C(F)(F)F)S[C@H]2C(=O)Nc2ccnc(C3(C#N)CC3)c2)ccc(F)c1F` [a-73-A, (2R,3S,5R)-N-(2-(1-cyanocyclopropyl)pyridin-4-yl)-3-(3,4-difluoro-2-methoxyphenyl)-5-methyl-5-(trifluoromethyl)tetrahydrothiophene-2-carboxamide], the inhibition at 0.001 µM in data set [2] (read-out: Inhibition rate %) worked out at 58.8%. The same measure, in the same setting: the value for `COc1c(C2CC(C)(C(F)(F)F)SC2C(=O)Nc2ccc(NC(=O)CN=[N+]=[N-])cc2)ccc(F)c1F` (stereo not drawn) [a-75-A, N-(4-(2-azidoacetamido)phenyl)-3-(3,4-difluoro-2-methoxyphenyl)-5-methyl-5-(trifluoromethyl)tetrahydrothiophene-2-carboxamide] was 55.2%. The molecule `COc1c([C@@H]2C[C@](C)(C(F)(F)F)S[C@H]2C(=O)Nc2ccnc(SC#N)c2)ccc(F)c1F` [a-80-A, (2R,3S,5R)-3-(3,4-difluoro-2-methoxyphenyl)-5-methyl-N-(2-thiocyanatopyridin-4-yl)-5-(trifluoromethyl)tetrahydrothiophene-2-carboxamide] displayed an IC50 in data set [2] of 0.19 nM. For the molecule `COc1c([C@@H]2C[C@](C)(C(F)(F)F)S[C@H]2C(=O)Nc2ccc(F)c(C=O)c2)ccc(F)c1F` [a-84-A, (2R,3S,5R)-3-(3,4-difluoro-2-methoxyphenyl)-N-(4-fluoro-3-formylphenyl)-5-methyl-5-(trifluoromethyl)tetrahydrothiophene-2-carboxamide], the inhibition at 0.001 µM in data set [2] (read-out: Inhibition rate %) was determined as 69.3%. As to `COc1c([C@@H]2C[C@](C)(C(F)(F)F)S[C@H]2C(=O)Nc2ccnc(C(=O)NO)c2)ccc(F)c1F` [a-87-A, 4-((2R,3S,5R)-3-(3,4-difluoro-2-methoxyphenyl)-5-methyl-5-(trifluoromethyl)tetrahydrothiophene-2-carboxamido)-N-hydroxypicolinamide], the inhibition at 0.001 µM in data set [2] (read-out: Inhibition rate %) was 47.7%. Still for that read-out and setting: the value for `COc1c([C@@H]2C[C@](C)(C(F)(F)F)S[C@H]2C(=O)Nc2ccc(F)c(/C=C(\C#N)C(N)=O)c2)ccc(F)c1F` [a-89-A, (2R,3S,5R)-N-(3-((E)-3-amino-2-cyano-3-oxopropen-1-yl)-4-fluorophenyl)-3-(3,4-difluoro-2-methoxyphenyl)-5-methyl-5-(trifluoromethyl)tetrahydrothiophene-2-carboxamide] was 51.5%.

A word on the IC50: it is the concentration that inhibits the measured activity by half. The low end stands for higher potency, the high end for lower potency. As usually defined, the AUC(0-inf) is total exposure, with the tail of the curve extrapolated. Usually inhibition stands for the percentage by which the read-out fell short of the control.
